From patent US20220112204A1, “SUBSTITUTED DIHYDROPYRANOPYRIMIDINE COMPOUNDS AS KRAS INHIBITORS” (ACCUTAR BIOTECHNOLOGY INC., priority 2020, published 2022) come the findings set out here.

Experiment [1] has as its target T1, KRAS-G12C mutant (Homo sapiens, UniProt P01116, G12C). The experiment in a line: Gel shift assay (SDS-PAGE) for covalent modification of KRAS G12C. The format is binding. The following applies: 0.5 μM compound, 1 μM GDP-bound KRAS G12C, 25° C., 5 minutes, shift indicative of covalent cysteine conjugation. The procedure:
0.5 μM compounds were incubated with 1 μM GDP-bound untagged KRAS (G12C or wild type) proteins at 25° C. for 5 minutes in 40 μl reaction buffer (50 mM Tris, pH 7.5, 100 mM NaCl, 1 mM MgCl2, 1 mM DTT). The reactions were quenched with 10 μI SDS-PAGE sample loading buffer (250 mM Tris-HCl, pH 6.8, 10% SDS, 0.5% bromophenol blue, 50% glycerol and 50 mM DTT) and then analyzed via SDS-PAGE using 4%-20% gradient polyacrylamide gel followed by Coomassie blue stain.
FIG. 1 illustrates mobility change of KRAS-G12C mutant or wild type proteins on SDS-PAGE after 5 minutes of coincubation at 25° C. with exemplary compounds of the present disclosure, indicative of covalent cysteine conjugation.
Table 3 summarizes molecular weight shift of KRAS-G12C mutant on SDS-PAGE after 5 mins of coincubation at 25° C. with exemplary compounds of the present disclosure, indicative of covalent cysteine conjugation.

The target of experiment [2] is T1, KRAS-G12C mutant. The experiment in a line: TR-FRET assay of SOS1-assisted KRAS GDP/GTP exchange. The format is biochemical. The procedure:
GDP form of 6*His tagged KRAS-G12C was diluted to 40 nM and incubated with 8 nM LanthaScreen™ Elite Terbium-anti-HIS Antibody (Thermo, catalog number PV5863) in reaction buffer containing 20 mM Tris, pH 7.5, 100 mM NaCl, 1 mM DTT, 0.1% Tween20, 0.05% BSA, 2% DMSO, 1 mM MgCl2. After 1 hour-incubation at 4° C., proteins were placed in 384 well plate (PerkinElmer, PROXIPLATE-384 PLUS). Then compounds with different concentrations were added to the proteins. BODIPY labeled GTP (Thermo, catalog number G12411) and SOS-1 (or reaction buffer as control) were then added to reactions at 200 nM and 1 μM to trigger the exchange of GDP to BODIPY-GTP. TR-FRET emission signals were determined at 520 nm and 620 nm on a Envision® Multilabel Plate Reader (PerkinElmer) using a 337 nm laser as light source. All data were analyzed and plotted using Graph Pad Prism software (version 8.0.1). Raw TR-FRET data were converted to percentage of inhibition (relative to DMSO) using the following equations: […]
b) For a given test compound concentration X:
Signal (X)=Emission ratio (SOS-1 & GTP)—Emission ratio (buffer & GTP)
c) Percentage of inhibition at concentration X=[1−Signal(X)/Signal (DMSO)]*100%
The […] values were determined by nonlinear regression of plots of [inhibitor] vs. percentage of inhibition with variable slope. Table 4 summarizes inhibition of SOS1-assisted GDP/GTP exchanging activity of KRAS-G12C mutant with exemplary compounds of the present disclosure.
(In general: Time-resolved FRET reads energy transfer from a long-lived donor to a nearby acceptor.)

Experiment [3] relates to phospho-ERK1/2 (Thr202/Tyr204) in MIA PaCa-2 cell line. In words: pERK and ERK Western blot analysis, MIA PaCa-2. In kind it is cell-based. The settings on record: Homo sapiens; MIA PaCa-2 cell line, 4 hours after incubation; read-out: 2D pERK IC50. On the procedure:
MIA PaCa-2 (ATCC), NCI-H358 (ATCC), NCI-H23 (ATCC), SW837 and A549 (ATCC) cells were plated in 24-well plates at 2×10^5cells/well in RPMI growth medium containing 10% FBS and 1× Penicillin Streptomycin. They were then incubated at 37° C. overnight. The following day, the test compound was administered to the cells by using 1000× compound stock solution prepared in DMSO at various concentrations. After administration of the compound, the cells were then incubated at 37° C. for 4 hours. Upon completion, the cells were washed with PBS and protein was collected in Laemmli sample buffer (1×; VWR International). Proteins in cell lysate were separated by SDS-PAGE and transferred to Odyssey nitrocellulose membranes (Licor) with iblot® dry blotting transfer system (ThermoFisher). Nonspecific binding was blocked by incubating membranes with Intercept Blocking Buffer (Licor) for 1 hour at room temperature with gentle shaking. The membranes were then incubated overnight at 4° C. with primary antibodies rabbit anti-phospho p44/42 MAPK (Erk1/2) (1:2,000, Cell Signaling, 4370) and mouse anti-p44/42 MAPK (Erk1/2) (1:1,000, Cell Signaling, 4696) diluted in Intercept Blocking Buffer containing 0.1% Tween 20. After washing 3 times with TBS-T, the membranes were incubated with IRDye® 800CW goat anti-rabbit IgG (1:20,000, Licor) or IRDye® 680CW goat anti-mouse IgG (1:20,000, Licor) for 1 hour. After TBS-T washes, membranes were rinsed in TBS and scanned on Odyssey® CLx Imaging System (Licor). The bands were quantified using Image Studio™ Software (Licor).

The subject of experiment [4] is MIA PaCa-2 cell line. In words: 3D cell growth assay (CellTiter-Glo), MIA PaCa-2. In kind it is cell-based. The settings on record: Homo sapiens, MIA PaCa-2, 144 h, MIA PaCa-2 cell line, 6 days, 3D cell culture; read-out: 3D growth inhibition GI50. On the procedure:
MIA PaCa-2 (ATCC), NCI-H358 (ATCC), NCI-H23 (ATCC), SW837 and A549 (ATCC) cells were plated in round bottom 96-well spheroid microplates (Corning, 4520) at 3000 cells/well in 90 ul of RPMI growth medium containing 10% FBS and 1% Penicillin Streptomycin. Cells were incubated at 37° C. overnight. The following day, the test compound was administered to the cells by using 10× compound stock solution prepared in growth medium at various concentrations. After administration of the compound, cells were then incubated at 37° C. for 6 days. Before CellTiter-Glo assay, the plates were equilibrated at room temperature for approximately 10 minutes. 100 ul of CellTiter-Glo® Reagent (Promega, G7573) was added to each well. The plates were then incubated at room temperature for 10 minutes and luminescence was recorded by EnSpire plate reader (PerkinElmer). Table 6 illustrates growth inhibition (G150) by exemplary compounds 1-10 of the present disclosure in a MIA PaCa-2 cell line 6 days after administration in 3D cell culture. A: >0.1 nM and <1 nM; B: >=1 nM and <10 nM; C: >=10 nM and <100 nM; D: >100 nM.

The IC50 is the point on the concentration scale where inhibition reaches its midpoint. What is called GI50 is the concentration that inhibits growth by half. For the molecule `C=C(F)C(=O)N1CCN(c2nc(OC[C@@]34CCCN3C[C@H](F)C4)nc3c2CO[C@@H](c2cccc4cccc(Cl)c24)C3)C[C@@H]1CC#N` (single isomer, unassigned) [Compound 63], the “KRAS-G12C molecular weight shift” value in experiment [1] is recorded as “No”. The IC50 in experiment [2] was 6930 nM; in experiment [3], more than 100 nM. For the same molecule, the concentration for 50% growth inhibition (GI50) in experiment [4] was in the range of 10 to 100 nM.

On to `C=C(F)C(=O)N1CCN(c2nc(OCC3(CN4CCCC4)CC3)nc3c2CO[C@H](c2cccc4cccc(Cl)c24)C3)C[C@@H]1CC#N` (single isomer, unassigned) [Compound 73], for which the “KRAS-G12C molecular weight shift” value in experiment [1] is given as “Yes”. Besides, the figures for the IC50 in experiment [2] and in experiment [3] were 112 nM and 10 to 100 nM, respectively. In experiment [4], the 50% growth inhibitory concentration (GI50) fell in the range of 10 to 100 nM.

With `C=C(F)C(=O)N1CCN(c2nc(OCC3(CN4CCCC4)CC3)nc3c2CO[C@@H](c2cccc4cccc(Cl)c24)C3)C[C@@H]1CC#N` (single isomer, unassigned) [Compound 72], the “KRAS-G12C molecular weight shift” value in experiment [1] is listed as “No”. Moreover, the half-inhibitory concentration (IC50) in experiment [2] was 11600 nM; in experiment [3], more than 100 nM. Besides, the 50% growth inhibitory concentration (GI50) in experiment [4] was more than 100 nM.

As for `C=CC(=O)N1CCN(c2nc(OC[C@@H]3CCCN3C)nc3c2CO[C@H](c2cccc4ccccc24)C3)C[C@@H]1CC#N` [Compound 4, 2-((S)-1-acryloyl-4-((S)-2-(((S)-1-methylpyrrolidin-2-yl)methoxy)-7-(naphthalen-1-yl)-7,8-dihydro-5H-pyrano[4,3-d]pyrimidin-4-yl)piperazin-2-yl)acetonitrile], the IC50 is 49 nM in experiment [2] and 1 to 10 nM in experiment [3]. Further, in experiment [4], the concentration for 50% growth inhibition (GI50) fell in the range of 1 to 10 nM.

Regarding `C=CC(=O)N1CCN(c2nc(OC[C@@H]3C[C@@H](F)CN3C)nc3c2COC(c2cccc4ccccc24)C3)C[C@@H]1CC#N` (stereo partly drawn) [Compound 8, 2-((2S)-1-acryloyl-4-(2-(((2S,4R)-4-fluoro-1-methylpyrrolidin-2-yl)methoxy)-7-(naphthalen-1-yl)-7,8-dihydro-5H-pyrano[4,3-d]pyrimidin-4-yl)piperazin-2-yl)acetonitrile], the results for the 50% inhibitory concentration (IC50) in experiment [2] and in experiment [3] were 238 nM and 1 to 10 nM, respectively. For the same molecule, the concentration for 50% growth inhibition (GI50) in experiment [4] lay within 10 to 100 nM.

`C=CC(=O)N1CCN(c2nc(OC[C@@H]3CCCN3C)nc3c2CO[C@H](c2cccc4cccc(Cl)c24)C3)C[C@@H]1CC#N` [Compound 7, 2-((S)-1-acryloyl-4-((S)-7-(8-chloronaphthalen-1-yl)-2-(((S)-1-methylpyrrolidin-2-yl)methoxy)-7,8-dihydro-5H-pyrano[4,3-d]pyrimidin-4-yl)piperazin-2-yl)acetonitrile]: the figures for the IC50 in experiment [2] and in experiment [3] were 19 nM and 0.1 to 1 nM, respectively. The GI50 in experiment [4] was in the range of 1 to 10 nM.

Consider `C=CC(=O)N1CCN(c2nc(OC[C@@H]3CCCN3C)nc3c2COC(c2cccc4ccccc24)C3)C[C@@H]1CC#N` (stereo partly drawn) [Compound 2, 2-((2S)-1-acryloyl-4-(2-(((S)-1-methylpyrrolidin-2-yl)methoxy)-7-(naphthalen-1-yl)-7,8-dihydro-5H-pyrano[4,3-d]pyrimidin-4-yl)piperazin-2-yl)acetonitrile], for which the half-inhibitory concentration (IC50) in experiment [2] is 77 nM; in experiment [3] it was 10 to 100 nM. Further, the GI50 in experiment [4] is 1 to 10 nM.

Regarding `C=CC(=O)N1CCN(c2nc(OC[C@@H]3C[C@H](F)CN3C)nc3c2CO[C@H](c2cccc4ccccc24)C3)C[C@@H]1CC#N` [Compound 9, 2-((S)-1-acryloyl-4-((S)-2-(((2S,4S)-4-fluoro-1-methylpyrrolidin-2-yl)methoxy)-7-(naphthalen-1-yl)-7,8-dihydro-5H-pyrano[4,3-d]pyrimidin-4-yl)piperazin-2-yl)acetonitrile], the 50% inhibitory concentration (IC50) in experiment [2] is 1 nM; in experiment [3], 10 to 100 nM. Also, in experiment [4], the GI50 was in the range of 10 to 100 nM.

On to `C=C(F)C(=O)N1CCN(c2nc(OCC34CCCN3CCC4)nc3c2CO[C@@H](c2cccc4cccc(C)c24)C3)C[C@@H]1CC#N` (single isomer, unassigned) [Compound 57], for which the “KRAS-G12C molecular weight shift” value in experiment [1] is on record as “No”. Also, the IC50 in experiment [2] is 4860 nM; in experiment [3] it was more than 100 nM.

As to `C=C(F)C(=O)N1CCN(c2nc(OCC34CCCN3CCC4)nc3c2[C@@H](C)O[C@@H](c2cccc4cccc(C)c24)C3)C[C@@H]1CC#N` [Compound 65, 2-((S)-1-(2-fluoroacryloyl)-4-((5R,7R)-5-methyl-7-(8-methylnaphthalen-1-yl)-2-((tetrahydro-1H-pyrrolizin-7a(5H)-yl)methoxy)-7,8-dihydro-5H-pyrano[4,3-d]pyrimidin-4-yl)piperazin-2-yl)acetonitrile], the “KRAS-G12C molecular weight shift” value in experiment [1] is “No”. The half-maximal inhibitory concentration (IC50) in experiment [2] was 11600 nM; in experiment [3] it was more than 100 nM.

`C=C(F)C(=O)N1CCN(c2nc(OCC34CCCN3CCC4)nc3c2CO[C@@H](c2cccc4cccc(Cl)c24)C3)C[C@@H]1CC#N` (single isomer, unassigned) [Compound 54]: the “KRAS-G12C molecular weight shift” value in experiment [1] is reported as “No”. Further, the half-inhibitory concentration (IC50) in experiment [2] is 2350 nM; in experiment [3], more than 100 nM.

For `C=C(F)C(=O)N1CCN(c2nc(OC[C@@H]3CCCN3C)nc3c2CO[C@@H](c2cccc4cccc(Cl)c24)C3)C[C@@H]1CC#N` [Compound 19, 2-((S)-4-((R)-7-(8-chloronaphthalen-1-yl)-2-(((S)-1-methylpyrrolidin-2-yl)methoxy)-7,8-dihydro-5H-pyrano[4,3-d]pyrimidin-4-yl)-1-(2-fluoroacryloyl)piperazin-2-yl)acetonitrile], the “KRAS-G12C molecular weight shift” value in experiment [1] is listed as “No”. Besides, the half-maximal inhibitory concentration (IC50) in experiment [2] is 80800 nM; in experiment [3], more than 100 nM.

Turning to `C=C(F)C(=O)N1CCN(c2nc(OCC3(CN(C)C)CC3)nc3c2COC(c2cccc4cccc(Cl)c24)C3)C[C@@H]1CC#N` (stereo partly drawn) [Compound 70, 2-((2S)-4-(7-(8-chloronaphthalen-1-yl)-2-((1-((dimethylamino)methyl)cyclopropyl)methoxy)-7,8-dihydro-5H-pyrano[4,3-d]pyrimidin-4-yl)-1-(2-fluoroacryloyl)piperazin-2-yl)acetonitrile], in experiment [1], the “KRAS-G12C molecular weight shift” value is on record as “Yes”. The half-maximal inhibitory concentration (IC50) in experiment [2] is 303 nM; in experiment [3], 10 to 100 nM.
